Several values for one entry are separate records, joined by “and”; a condition that tells them apart may be missing. Equal values may be shown once. Read-outs that look alike come from different tables or passages of the source.
What was measured:
[1] = molecular target: T1, androgen receptor (AdEasy+rAR, L929 cells) (Rattus norvegicus, UniProt P15207); assay: L929 Androgen Receptor Functional Assay, Adenovirus Transduction; type: cell-based; settings: for EC50 / % Activity, L929 androgen receptor functional assay: agonist testing; for IC50: antagonist testing with R1881; for inhibition at 3 µM: L929, antagonist testing with R1881, 3000 nM; for % Inhibition, L929 androgen receptor functional assay: antagonist testing with R1881, 3000 nM
T1 construct: expressed in transfected cells; host or cells: L929 cells transduced with adenovirus AdEasy+rAR
T1 sequence (P15207 1-902): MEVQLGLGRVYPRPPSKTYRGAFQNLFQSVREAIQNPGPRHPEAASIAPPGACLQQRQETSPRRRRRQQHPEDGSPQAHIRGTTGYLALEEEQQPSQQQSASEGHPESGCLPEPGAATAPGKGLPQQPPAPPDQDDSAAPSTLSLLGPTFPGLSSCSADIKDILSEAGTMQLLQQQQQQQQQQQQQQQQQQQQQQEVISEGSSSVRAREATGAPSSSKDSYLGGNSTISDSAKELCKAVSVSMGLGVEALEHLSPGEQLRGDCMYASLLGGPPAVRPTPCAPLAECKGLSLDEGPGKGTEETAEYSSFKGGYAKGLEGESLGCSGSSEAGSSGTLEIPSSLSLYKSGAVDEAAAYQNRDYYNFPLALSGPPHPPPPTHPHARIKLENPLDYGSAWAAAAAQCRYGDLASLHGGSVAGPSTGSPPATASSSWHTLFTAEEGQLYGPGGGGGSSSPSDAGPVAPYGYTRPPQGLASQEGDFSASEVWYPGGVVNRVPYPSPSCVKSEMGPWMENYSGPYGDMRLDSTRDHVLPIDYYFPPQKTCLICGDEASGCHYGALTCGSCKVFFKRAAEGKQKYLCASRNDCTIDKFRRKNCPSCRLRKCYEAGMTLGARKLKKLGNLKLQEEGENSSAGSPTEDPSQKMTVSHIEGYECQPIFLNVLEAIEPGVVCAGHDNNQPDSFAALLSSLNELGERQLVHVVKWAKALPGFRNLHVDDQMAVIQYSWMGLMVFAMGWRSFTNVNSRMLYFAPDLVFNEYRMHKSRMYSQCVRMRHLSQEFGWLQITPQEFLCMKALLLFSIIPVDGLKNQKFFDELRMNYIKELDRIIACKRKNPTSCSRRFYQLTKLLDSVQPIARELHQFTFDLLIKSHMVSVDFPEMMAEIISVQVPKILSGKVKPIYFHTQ
Method in brief: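 L929 cells in phenol red-free, charcoal-stripped serum medium transduced with AdEasy+rAR (moi 1:500) and exposed 48 h at 37 °C to compound alone (agonist mode) or with R1881 (antagonist mode; 2.5 nM as the 2.5× dilution).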

[2] = molecular target: T2, androgen receptor (AdEasy+rAR, COS-7 cells) (Rattus norvegicus, UniProt P15207); assay: COS-7 Whole-Cell Androgen Receptor Binding Assay, Adenovirus Transduction; settings: for % Inhibition, COS Binding / inhibition at 3 µM: concentration of 3000 nM
T2 construct: expressed in transfected cells; host or cells: COS-7 cells transduced with adenovirus AdEasy+rAR
T2 sequence (P15207 1-902): T1 sequence (P15207 1-902)
Method in brief: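 COS-7 cells in phenol red-free DMEM/F12 with 10% charcoal-treated FBS were transduced with AdEasy+rAR adenovirus (moi 1:50 per well), exposed to test compound in duplicate and incubated for 48 h at 37° C. Cells were then lysed in 0.5% Triton X-100 and bound radioactivity counted by scintillation.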

[3] = read-out: IC50 (nM), COS Binding

SMILES	IC50 [2, 3]	inhibition at 3 µM [1] [%]	% Activity, L929 androgen receptor functional assay ([1]; 3000 nM) [%]	inhibition at 3 µM [2] [%]	other results
CCS(=O)(=O)CC(C)(O)c1cc2cc([N+](=O)[O-])c(C(F)(F)F)cc2[nH]1 (stereo not drawn) [Compound 151]	> 970 nM and 2190 nM	–	–	–	EC50 [1]: > 8000 nM; % Activity, L929 androgen receptor functional assay ([1]; @ 8000 nM): −1 @ 8000 nM %; IC50 [1]: 533 nM; % Inhibition, COS Binding ([2]; 3 µM): 55%
CC(O)(CSC1CCCC1)c1cc2cc([N+](=O)[O-])c(C(F)(F)F)cc2[nH]1 (stereo not drawn) [Compound 173]	> 3000 nM	40	2	17	–
CC(O)(CS(C)(=O)=O)c1cc2cc(Cl)c(C(F)(F)F)cc2[nH]1 (stereo not drawn) [Compound 138]	317 nM	19	0	78	–
CSCCC(C)(O)c1cc2cc([N+](=O)[O-])c(C(F)(F)F)cc2[nH]1 (stereo not drawn) [Compound 47]	> 1000 nM	75	2	78	–
COc1ccc(SCC(C)(O)c2cc3cc(Cl)c(C(F)(F)F)cc3[nH]2)cc1 (stereo not drawn) [Compound 131]	> 1600 nM	-4	−5	84	–
CC(O)(CS(C)(=O)=O)c1cc2cc([N+](=O)[O-])c(C(F)(F)F)cc2[nH]1 (stereo not drawn) [Compound 140]	> 1500 nM	–	0	–	% Inhibition, L929 androgen receptor functional assay ([1]; 3 µM): 78%; % Inhibition, COS Binding ([2]; 3 µM): 51.5%
CC(C)CSCC(C)(O)c1cc2cc([N+](=O)[O-])c(C(F)(F)F)cc2[nH]1 (stereo not drawn) [Compound 170]	> 3000 nM	67	2	67	–
CCSCC(C)(O)c1cc2cc([N+](=O)[O-])c(C(F)(F)F)cc2[nH]1 (single isomer, unassigned) [Compound 150]	165 nM and 627 nM	–	–	–	EC50 [1]: > 8000 nM; % Activity, L929 androgen receptor functional assay ([1]; @ 8000 nM): 0 @ 8000 nM %; IC50 [1]: 303 nM; % Inhibition, COS Binding ([2]; 3 µM): 81% and 74%
CC(O)(C[S+]([O-])Cc1ccccc1)c1cc2cc([N+](=O)[O-])c(C(F)(F)F)cc2[nH]1 (mixture of isomers) [Compound 161]	–	–	2	–	% Inhibition, COS Binding [2]: 20%
CC(C)SCC(C)(O)c1cc2cc([N+](=O)[O-])c(C(F)(F)F)cc2[nH]1 (stereo not drawn) [Compound 164]	> 1000 nM	71	2	68	–
CCCSCC(C)(O)c1cc2cc([N+](=O)[O-])c(C(F)(F)F)cc2[nH]1 (stereo not drawn) [Compound 168]	> 3000 nM	26	3	60	–
CC(O)(CS(C)(=O)=O)c1cc2cc([N+](=O)[O-])c(C(F)(F)F)cc2[nH]1 (stereo not drawn) [Compound 147]	> 3000 nM	–	0	–	% Inhibition, L929 androgen receptor functional assay ([1]; 3 µM): 43%; % Inhibition, COS Binding ([2]; 3 µM): 6.1%
CCSCC(C)(O)c1cc2cc([N+](=O)[O-])c(C(F)(F)F)cc2[nH]1 (racemic) [Compound 142]	220 nM	78	0	90	–
CCSCC(C)(O)c1cc2cc([N+](=O)[O-])c(C(F)(F)F)cc2n1S(C)(=O)=O (stereo not drawn) [Compound 141]	> 3000 nM	42	0	42	–
CC(O)(CSc1ccc(N)cc1)c1cc2cc(Cl)c(C(F)(F)F)cc2[nH]1 (stereo not drawn) [Compound 104]	–	18	9	94	–
CC(O)(CSCc1ccccc1)c1cc2cc([N+](=O)[O-])c(C(F)(F)F)cc2[nH]1 (stereo not drawn) [Compound 160]	250 nM	76	1	84	–
CSCC(C)(O)c1cc2cc([N+](=O)[O-])c(C(F)(F)F)cc2[nH]1 (single isomer, unassigned) [Compound 144]	375 nM	82	–	–	% Activity, L929 androgen receptor functional assay ([1]; 3000 nM, 3 µM): 0%
CSCC(C)(O)c1cc2cc(Cl)c(C(F)(F)F)cc2[nH]1 (stereo not drawn) [Compound 135]	320 nM	40	0	98	–
CC(O)(CSc1ccc(O)cc1)c1cc2cc(Cl)c(C(F)(F)F)cc2[nH]1 (stereo not drawn) [Compound 120]	205 nM	44	−5	86	–
CCSCC(O)(CC)c1cc2cc([N+](=O)[O-])c(C(F)(F)F)cc2[nH]1 (stereo not drawn) [Compound 169]	48 nM	98	2	90	–
CC(O)(CS(=O)(=O)c1ccc(O)cc1)c1cc2cc(Cl)c(C(F)(F)F)cc2[nH]1 (stereo not drawn) [Compound 121]	> 1800 nM	54	−4	72	–
CC(O)(CSc1ccc([N+](=O)[O-])cc1)c1cc2cc(Cl)c(C(F)(F)F)cc2[nH]1 (stereo not drawn) [Compound 122]	> 1600 nM	35	10	66	–
CSCC(C)(O)c1cc2cc(C#N)c(C(F)(F)F)cc2[nH]1 (stereo not drawn) [Compound 136]	527 nM	75	0	4.8	–
CSCC(C)(O)c1cc2cc([N+](=O)[O-])c(C(F)(F)F)cc2[nH]1 (single isomer, unassigned) [Compound 145]	36.7 nM	–	–	84.7	% Activity, L929 androgen receptor functional assay ([1]; 3000 nM, 3 µM): 1%; % Inhibition, L929 androgen receptor functional assay ([1]; 3 µM): 94%
CC[S+]([O-])C[C@](C)(O)c1cc2cc([N+](=O)[O-])c(C(F)(F)F)cc2[nH]1 (stereo in doubt) [Compound 155, 1-Ethanesulfinyl-2-(5-nitro-6-trifluoromethyl-1H-indol-2-yl)-propan-2-ol]	–	-2	2	35	–
CCSCC(O)c1cc2cc([N+](=O)[O-])c(C(F)(F)F)cc2[nH]1 (stereo not drawn) [Compound 158]	160 nM and 550 nM	21	–	62	% Activity, L929 androgen receptor functional assay ([1]; 3000 nM, 3 µM): 3% and 2%; % Inhibition, L929 androgen receptor functional assay ([1]; 3 µM): 29%; % Inhibition, COS Binding ([2]; 3 µM): 56%
CC(O)(CSCC(F)(F)F)c1cc2cc([N+](=O)[O-])c(C(F)(F)F)cc2[nH]1 (stereo not drawn) [Compound 171]	145 nM	–	–	92	EC50 [1]: > 8000 nM; % Activity, L929 androgen receptor functional assay ([1]; 3000 nM, 3 µM): 11%; % Activity, L929 androgen receptor functional assay ([1]; @ 8000 nM): −1 @ 8000 nM %; IC50 [1]: 366 nM; % Inhibition, L929 androgen receptor functional assay ([1]; 3 µM): 101% and 70%; % Inhibition, COS Binding ([2]; 3 µM): 94%
CCS(=O)(=O)C[C@](C)(O)c1cc2cc([N+](=O)[O-])c(C(F)(F)F)cc2[nH]1 [Compound 156, 1-Ethanesulfonyl-2-(5-nitro-6-trifluoromethyl-1H-indol-2-yl)-propan-2-ol]	–	35	2	42	% Inhibition, L929 androgen receptor functional assay ([1]; 3 µM): 23%; IC50 ([2]; IC50 (nM), COS Binding): > 1000 nM; % Inhibition, COS Binding ([2]; 3 µM): 52%
